From patent publication US20220290200A1, “GENETICALLY MODIFIED HOST CELLS PRODUCING GLYCOSYLATED CANNABINOIDS” (OCTARINE BIO IVS, priority 2019, published 2022) come the findings set out here.

The series in a line: In vitro glycosyl transferase performance, purified enzymes, % conversion of cannabinoids to cannabinoid glycosides. The format is biochemical. The settings on record: for Conversion % (CBG to the glycoside): acceptor CBG; for Conversion % (CBD to the glycoside): acceptor CBD; for Conversion % (CBDV to the glycoside): acceptor CBDV; for Conversion % (11-nor-9-carboxy-THC-glycoside produced): substrate 11-nor-9-carboxy-THC, enzyme PL-113(Tc90A_GA); for Conversion % (THC-glycoside produced): substrate THC. The procedure:
For in vitro studies of glycosyl transferase performance in glycosylating cannabinoids, purified Glycosyl transferases were prepared as follows:
5 mL of 2× concentrated LB medium+Ampicillin (50 μg/m L) was inoculated with E. coli XJb (DE3) strains expressing a glycosyl transferase of interest and incubated overnight at 30° C. with shaking. The following day, cell cultures were transferred into 500 mL of 2× concentrated LB medium+Ampicillin (50 μg/mL) and incubated overnight at 30° C. with shaking. The following day, the cell cultures were transferred to 1 L of 2× concentrated LB medium+Ampicillin (50 μg/mL)+3 mM arabinose+0.1 mM IPTG. Cells were incubated for 24 h at 20° C. with shaking. The following day, the cells were collected by centrifugation at 46500×g for 10 mins at 4° C. Cells were resuspended in 20 mL ice-cold GT buffer (50 mM Tris-HCl pH7.4+1 mM phenylmethanesulfonyl fluoride+1 cOmplete™, mini, EDTA-free Protease Inhibitor Cocktail tablet (Roche)). The resuspended material was transferred to a 50 mL falcon tube and kept at −80° C. for at least 15 mins. Falcon tubes were then thawed at room temperature, as the tubes were thawing the following reagents were added; 2.6 mM MgCl2, 1 mM CaCl2, 250 μL of a 1.4 mg/ml DNase solution (Sigma) dissolved in MilliQ water. Tubes were gently inverted to mix then were incubated for 5 mins at 37° C. Binding buffer was then added to the tubes (50 mM Tris-HCl pH7.4, 10 mM imidazole, 500 mM NaCl. 11.25 mL MilliQ water) and the pH adjusted to 7.4 with HCl. The mix was centrifuged at 15550×g for 15 mins at 4° C., the supernatant transferred to a fresh 50 mL falcon tubes and centrifuged again to remove any remaining cellular debris at 48400×g for 20 minutes at 4° C. While the enzyme prep was centrifuging, 3 mL of HIS-Select (available from Sigma P6611) column material was added to a fresh 50 mL tube and washed by adding MilliQ water up to 50 mL, centrifuging at 2000×g for 2 mins and discarding the supernatant. This washing step was repeated. Finally, MilliQ water was added to the HIS-Select material to an approximate 50% volume. Collected supernatant from the centrifuged enzyme preparation was transferred to the tube containing the HIS-Select material through a Miracloth (available from Merck Millipore), and then incubated at 4° C. with gently shaking by inversion for 2 h. After 2 h the mix was centrifuged at 2000×g for 4 minutes at 4° C. and the supernatant discarded. The remaining HIS-Select material was washed twice with 1× binding buffer (50 mM Tris-HCl, 0.5M NaCl, 10 mM Imidazole, pH 7.4) with centrifugation at 2000×g for 4 minutes at 4° C. The HIS-Select material was resuspended in 5 mL 1× binding buffer and transferred to a Poly-Prep®Chromatography Column (available from BioRad, 7311550). The HIS-Select material was kept at 4° C. and washed twice with 1× binding buffer by filling up the column and allowing it to drip through. Finally, purified Glycosyl transferases were eluted from the HIS-Select material by adding 7.5 mL of elution buffer (50 mM Tris-HCl, 500 mM Imidazole, pH7.4) and collecting the flow through. Enzymes were used immediately in in vitro enzyme assays or stored at −20° C. in 50% glycerol until needed.
In vitro conversion of various cannabinoids to cannabinoid glycosides was carried out according to table 21. Alkaline phosphatase was provided by New England Biolabs (M0371S). Cannabinoids were dissolved in methanol. The UDP-sugar (e.g. UDP-glucose) was provided by a commercial supplier (e.g. Sigma) or produced by in vitro enzymatic conversion from a commercially available UDP-sugar as shown in Example 21.
The reaction mixture was scaled up or down as required. The reaction mixture was incubated without shaking at 30° C. for 24 hours. Extraction and analysis were performed as described above for this example. […]

Setting [1] is: UDP-Xylose, enzyme PL-214(Cs73Y_GA).
The mark [2] stands for this setting: UDP-Glucose, enzyme PL-214(Cs73Y_GA).

For the molecule CBG-1′-O-β-D-tetra-xyloside [OB40], the “Conversion % (CBG to the glycoside)” value under setting [1] is recorded as 1.2%. Regarding `C=C(C)C1CCC(C)=CC1c1c(O)cc(CCCCC)cc1O[C@@H]1OC[C@@H](O)[C@H](O)[C@H]1O` (stereo partly drawn) [OB9, CBD-1′-O-β-D-xyloside], the “Conversion % (CBD to the glycoside)” value (UDP-Xylose, enzyme PL-159(Pt88G_GA)) is recorded as 12.4%.

Take `C=C(C)[C@@H]1CCC(C)=C[C@H]1c1c(O[C@@H]2O[C@H](CO)[C@@H](O)[C@H](O)[C@H]2O)cc(CCC)cc1O[C@@H]1O[C@H](CO)[C@@H](O)[C@H](O)[C@H]1O` [OB25, CBDV-1′-O-β-O-glucosyl-3′-O-β-D-glucoside]: the “Conversion % (CBDV to the glycoside)” value (UDP-Glucose, enzyme PL-342(Cp73B_GA)) was 4.5%. With CBN-1′-O-β-D-di-glucoside [OB23], the “Conversion % (CBN-glycoside produced)” value (substrate CBN, sugar donor UDP-Glucose, enzyme PL-342(Cp73B_GA)) was found to be 100%.

Regarding `CCCCCc1cc(O)c(C/C=C(\C)CCC=C(C)C)c(O[C@@H]2O[C@H](CO)[C@@H](O)[C@H](O)[C@H]2O)c1` [OB32, CBG-1′-O-β-D-glucoside], the “Conversion % (CBG to the glycoside)” value (UDP-Glucose, enzyme PL-340(Qs72S_1_GA)) was found to be 98.9%. `C=C(C)C1CCC(C)=CC1c1c(O)cc(CCCCC)cc1O[C@@H]1O[C@H](CO)[C@@H](O)[C@H](O[C@@H]2O[C@H](CO)[C@@H](O)[C@H](O)[C@H]2O)[C@H]1O` (stereo partly drawn) [OB2, CBD-1′-O-β-D-laminaribioside]: the “Conversion % (CBD to the glycoside)” value (UDP-Glucose, enzymes PL-159(Pt88G_GA) + PL-55(Sr76G1_GA)) was determined as 80.7%. As to CBD-1′-O-β-D-tri-glucoside [OB7], the “Conversion % (CBD to the glycoside)” value under setting [2] was found to be 27.3%. As to “11-nor-9-carboxy-THC-1′-O-β-D-di-glucoside [OB42]”, the “Conversion % (11-nor-9-carboxy-THC-glycoside produced)” value (sugar donor UDP-Glucose) came to 3.4%. On to `C=C(C)[C@@H]1CCC(C)=C[C@H]1c1c(O)cc(CCC)cc1O[C@@H]1O[C@H](CO)[C@@H](O)[C@H](O)[C@H]1O` [OB24, CBDV-1′-O-β-D-glucoside], for which the “Conversion % (CBDV to the glycoside)” value (UDP-Glucose, enzyme PL-326(Ha72B_GA)) is reported as 92.6%. Regarding `C=C(C)C1CCC(C)=CC1c1c(OC2OC(CO)C(O)C(O)C2O)cc(CCCCC)c(C(=O)O)c1O` [OB31, CBDA-1′-O-β-D-glucoside], the “Conversion % (CBDA to the glycoside)” value (acceptor CBDA, UDP-Glucose, enzyme PL-214(Cs73Y_GA)) was found to be 92%. As for “CBD-1′-O-β-D-glucosyl-3′-O-β-D-di-glucoside [OB8]”, the “Conversion % (CBD to the glycoside)” value under setting [2] turned out to be 12.3%.

Regarding `C=C(C)C1CCC(C)=CC1c1c(O)cc(CCC)cc1OC1OCC(O)C(O)C1O` (stereo not shown) [OB29], under setting [1], the “Conversion % (CBDV to the glycoside)” value was determined as 12.1%. Take `C=C(C)C1CCC(C)=CC1c1c(O)cc(CCCCC)cc1OC1OC(COC2OC(CO)C(O)C(O)C2O)C(O)C(O)C1O` (stereo not shown) [OB3]: the “Conversion % (CBD to the glycoside)” value (UDP-Glucose, enzymes PL-159(Pt88G_GA) + PL-152(Si94D_GA)) is 96.4%. Turning to `CCCCCc1cc(O[C@@H]2O[C@H](CO)[C@@H](O)[C@H](O)[C@H]2O)c(C/C=C(\C)CCC=C(C)C)c(O[C@@H]2O[C@H](CO)[C@@H](O)[C@H](O)[C@H]2O)c1` [OB33, CBG-1′-O-β-D-glucosyl-3′-O-β-D-glucoside], the “Conversion % (CBG to the glycoside)” value (UDP-Glucose, enzyme PL-5(At73C5_GA)) turned out to be 4.5%. In the case of `C=C(C)C1CCC(C)=CC1c1c(O)cc(CCCCC)cc1OC1OC(C(=O)O)C(O)C(O)C1O` (stereo not shown) [OB14], the “Conversion % (CBD to the glycoside)” value (UDP-Glucuronic Acid, enzyme PL-214(Cs73Y_GA)) is reported as 2.0%.

As for `CCCCCc1cc(O[C@@H]2O[C@H](CO)[C@@H](O)[C@H](O)[C@H]2O)c2c(c1)OC(C)(C)[C@@H]1CCC(C)=C[C@@H]21` [OB20, THC-1′-O-β-D-glucoside], for the setting “sugar donor UDP-Glucose, enzyme PL-182(Ha88B_2_GA)”, the “Conversion % (THC-glycoside produced)” value is 74.9%. For `C=C(C)C1CCC(C)=CC1c1c(O)cc(CCCCC)cc1OC1OC(CO)C(O)C(O)C1O` (stereo not shown) [OB16], the “Conversion % (CBD to the glycoside)” value (UDP-Galactose, enzyme PL-214(Cs73Y_GA)) came to 62%. With `CCCCCc1cc(OC2OCC(O)C(O)C2O)c2c(c1)OC(C)(C)C1CCC(C)=CC21` (stereo not shown) [OB21], the “Conversion % (THC-glycoside produced)” value (sugar donor UDP-Xylose, enzyme PL-214(Cs73Y_GA)) worked out at 19.5%. For the molecule `CCCCCc1cc(O[C@@H]2O[C@H](CO)[C@@H](O)[C@H](O)[C@H]2O)c2c(c1)OC(C)(C)[C@@H]1CCC(C(=O)O)=C[C@@H]21` [OB41, 11-nor-9-carboxy-THC-1′-O-β-D-glucoside], the “Conversion % (11-nor-9-carboxy-THC-glycoside produced)” value (sugar donor UDP-Glucose) came to 70.2%.

In the case of `CCCCCc1cc(O)c(C/C=C(\C)CCC=C(C)C)c(O[C@@H]2OC[C@@H](O)[C@H](O)[C@H]2O)c1` [OB36], the “Conversion % (CBG to the glycoside)” value under setting [1] amounted to 1.0%.

B1: Pt78G: glycosyl transferase, SEQ ID NO: 165, 166 (protein)
chain: MSEARNDLKHIAVLAFPVATHGPPLLSLVRRLSASASYAKFSFFSTKESNSKLFSKEDGLENIKPYNVSDGLPENYNFAGNLDEVMNYFFKATPGNFKQAMEVAVKEVGKDFTCIMSDAFLWFAADFAQELHVPWVPLWTSSSRSLLLVLETDLVHQKMRSIINEPEDRTIDILPGFSELRGSDIPKELFHDVKESQFAAMLCKIGLALPQAAVVASNSFEELDPDAVILFKSRLPKFLNIGPFVLTSPDPFMSDPHGCLEWLDKQKQESVVYISFGSVISLPPQELAELVEALKECKLPFLWSFRGNPKEELPEEFLERTKEKGKVVSWTPQLKVLRHKAIGVFVTHSGWNSVLDSIAGCVPMICRPFFGDQTVNTRTIEAVWGTGLEIEGGRITKGGLMKALRLIMSTDEGNKMRKKLQHLQGLALDAVQSSGSSTKNFETLLEVVAK
With B1, the “conversion of cannabinoid aglycone to cannabinoid glycoside in 24 h” value (CBG to CBG-1′-O-β-D-glucosyl-3′-O-β-D-glucoside (OB33)) is given as 100%.

B2: Cp7.38: glycosyl transferase, SEQ ID NO: 191, 192 (protein)
chain: MGSEVLHHDYSQLNIFFFPFMAHGHMIPTLDMAKLFATHGAKTSIITTPLNLPFFSKSIERFSKQTGLEIGVKLLNFPSVEVGLPSGCENADSLPAGEPLIVNKFFAAAGMLKDPLERLLQEFKPDCLIADMFFPWTTDAAAKFDIPRLVFHGTSFFALSASECIRLYTPFNNVSSDSEPFLVPTLPDEIRLTRNQLADFAMKEGDENGIHRLIKEAKESELKSYGVVVNSFYELEPAYADHYRNFLKRKAWHIGPVSLCNKTVEDKAERGKRASIDEDECLKWLNSKAPNSVIYICFGSMANFNSAQLMEIATALDASGQEFIWVVRREKNENNQEDWLPEGFEQRTEGKGLIIRGWAPQVLILEHEAVGGFVTHCGWNSTLEGVTAGMPMVTWPVSAEQFYNEKLVTEVLKIGLSVGVKKWVRSEGDFVSREKVEQAVREIMVGSEAVERRMRAKAMADMARAAVEKGGSSYNDLNALLREVSLMRRQQSQNQ
With B2, the “conversion of cannabinoid aglycone to cannabinoid glycoside in 24 h” value (CBN to CBN-1′-O-β-D-di-glucoside (OB23)) is listed as 100%.
